≈ marks a conversion by molar mass, not a printed value.

The target of data set [1] is T1, Tyrosine-protein kinase receptor UFO (Homo sapiens, UniProt P30530).
T1 sequence (P30530 whole entry): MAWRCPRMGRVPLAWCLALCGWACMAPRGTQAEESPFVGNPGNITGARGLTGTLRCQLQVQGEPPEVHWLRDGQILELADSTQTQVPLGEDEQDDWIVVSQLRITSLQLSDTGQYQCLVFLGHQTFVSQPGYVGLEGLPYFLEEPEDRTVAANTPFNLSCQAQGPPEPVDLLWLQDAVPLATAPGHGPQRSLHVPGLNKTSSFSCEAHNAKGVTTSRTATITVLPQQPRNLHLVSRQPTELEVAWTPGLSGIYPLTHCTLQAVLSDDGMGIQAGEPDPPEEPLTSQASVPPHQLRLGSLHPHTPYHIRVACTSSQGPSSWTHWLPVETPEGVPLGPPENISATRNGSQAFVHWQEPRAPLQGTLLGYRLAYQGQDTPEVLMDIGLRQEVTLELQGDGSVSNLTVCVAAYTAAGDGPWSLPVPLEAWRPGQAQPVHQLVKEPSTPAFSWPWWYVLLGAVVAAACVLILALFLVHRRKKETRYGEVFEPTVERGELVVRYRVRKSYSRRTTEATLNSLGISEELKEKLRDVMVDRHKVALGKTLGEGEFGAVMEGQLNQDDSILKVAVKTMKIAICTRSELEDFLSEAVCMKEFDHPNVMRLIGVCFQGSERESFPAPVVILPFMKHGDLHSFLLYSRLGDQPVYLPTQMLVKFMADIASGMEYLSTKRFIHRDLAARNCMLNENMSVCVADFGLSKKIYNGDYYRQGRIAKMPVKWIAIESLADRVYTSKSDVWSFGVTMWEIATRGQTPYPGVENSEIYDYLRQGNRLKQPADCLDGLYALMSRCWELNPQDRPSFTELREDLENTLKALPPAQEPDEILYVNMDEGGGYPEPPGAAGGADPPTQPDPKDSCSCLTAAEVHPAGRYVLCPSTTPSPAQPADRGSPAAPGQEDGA
The data set is described as follows: Inhibition of GST-tagged AXL (unknown origin) ([…] residues) using Axltide (CKKSRGDYMTMQJG-acid) peptide as substrate preincubated for 30 mins followed by substrate and ATP addition at Km concentration measured after 40 mins by ADP-Glo Reagent based method. Background: In ADP-Glo the light output rises with the ADP produced.

Data set [2] addresses T2, Receptor-type tyrosine-protein kinase FLT3 (Homo sapiens, UniProt P36888).
T2 sequence (P36888 whole entry): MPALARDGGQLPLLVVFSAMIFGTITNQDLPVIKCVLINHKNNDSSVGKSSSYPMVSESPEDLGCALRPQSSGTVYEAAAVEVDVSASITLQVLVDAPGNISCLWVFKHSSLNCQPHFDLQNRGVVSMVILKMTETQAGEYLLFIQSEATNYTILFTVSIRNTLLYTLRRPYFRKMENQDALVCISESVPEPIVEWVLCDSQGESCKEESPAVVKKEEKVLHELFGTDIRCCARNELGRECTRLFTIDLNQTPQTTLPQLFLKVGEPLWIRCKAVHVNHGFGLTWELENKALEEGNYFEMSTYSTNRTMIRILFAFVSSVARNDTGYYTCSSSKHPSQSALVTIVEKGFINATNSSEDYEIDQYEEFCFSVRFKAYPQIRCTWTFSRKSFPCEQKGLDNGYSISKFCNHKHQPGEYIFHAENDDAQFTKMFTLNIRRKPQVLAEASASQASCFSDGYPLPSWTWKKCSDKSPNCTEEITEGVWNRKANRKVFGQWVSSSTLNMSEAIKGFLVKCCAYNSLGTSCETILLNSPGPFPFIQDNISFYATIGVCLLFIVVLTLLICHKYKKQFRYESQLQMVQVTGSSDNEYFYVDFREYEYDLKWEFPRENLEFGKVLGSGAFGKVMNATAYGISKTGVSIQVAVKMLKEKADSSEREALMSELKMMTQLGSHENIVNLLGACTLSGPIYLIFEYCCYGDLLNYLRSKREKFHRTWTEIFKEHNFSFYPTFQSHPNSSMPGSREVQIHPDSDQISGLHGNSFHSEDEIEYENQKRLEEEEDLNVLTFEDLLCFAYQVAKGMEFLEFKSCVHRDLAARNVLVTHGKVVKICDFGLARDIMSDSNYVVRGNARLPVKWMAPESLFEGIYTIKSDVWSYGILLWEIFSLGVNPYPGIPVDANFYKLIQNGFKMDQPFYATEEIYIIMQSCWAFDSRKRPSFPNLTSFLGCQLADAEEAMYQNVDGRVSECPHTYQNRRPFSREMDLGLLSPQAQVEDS
Description: Inhibition of His6/TEV fused-GST-tagged Flt3 (unknown origin) (H564 to S993 residues) using Axltide (CKKSRGDYMTMQJ-acid) peptide as substrate preincubated for 30 mins followed by substrate addition in presence of ATP and measured for 90 mins by ADP-Glo Reagent based method.

A short description of data set [3]: Intrinsic clearance in rat hepatocytes assessed per 10^6 cells. The data set is classed as ADME, cell-based, Hepatocyte. To be noted: read-out: CLH.
The nature of data set [4]: Aqueous solubility of the compound. The data set is classed as physicochemical.
Data set [5] deals with T3, Tyrosine-protein kinase Mer (Homo sapiens, UniProt Q12866).
T3 sequence (Q12866 whole entry): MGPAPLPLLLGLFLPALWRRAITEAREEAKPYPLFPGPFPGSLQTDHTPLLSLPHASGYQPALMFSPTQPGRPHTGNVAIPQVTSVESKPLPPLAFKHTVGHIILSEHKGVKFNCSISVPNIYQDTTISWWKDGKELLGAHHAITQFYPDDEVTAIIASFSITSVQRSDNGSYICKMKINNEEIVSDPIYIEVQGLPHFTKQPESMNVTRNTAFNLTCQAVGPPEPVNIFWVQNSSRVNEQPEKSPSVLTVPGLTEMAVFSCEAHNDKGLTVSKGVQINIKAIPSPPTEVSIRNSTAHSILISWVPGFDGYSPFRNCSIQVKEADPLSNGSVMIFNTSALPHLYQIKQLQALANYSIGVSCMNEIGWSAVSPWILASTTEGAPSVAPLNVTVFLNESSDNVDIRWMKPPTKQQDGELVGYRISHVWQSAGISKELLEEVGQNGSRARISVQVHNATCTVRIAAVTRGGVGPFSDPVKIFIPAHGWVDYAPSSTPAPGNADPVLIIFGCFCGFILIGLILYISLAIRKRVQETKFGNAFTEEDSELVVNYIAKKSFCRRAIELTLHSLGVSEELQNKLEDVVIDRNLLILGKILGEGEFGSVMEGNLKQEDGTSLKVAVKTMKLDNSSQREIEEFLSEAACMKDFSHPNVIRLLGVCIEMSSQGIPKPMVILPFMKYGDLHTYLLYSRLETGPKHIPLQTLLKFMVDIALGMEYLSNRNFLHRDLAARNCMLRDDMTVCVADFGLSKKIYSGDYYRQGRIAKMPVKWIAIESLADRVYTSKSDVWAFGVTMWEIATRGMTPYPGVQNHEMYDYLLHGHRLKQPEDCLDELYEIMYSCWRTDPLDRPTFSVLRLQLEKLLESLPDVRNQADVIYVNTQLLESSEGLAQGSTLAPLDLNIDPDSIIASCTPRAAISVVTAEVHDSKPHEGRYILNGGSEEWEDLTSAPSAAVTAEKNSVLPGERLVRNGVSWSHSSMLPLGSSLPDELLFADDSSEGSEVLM
Description: Inhibition of 6His/thrombin cleavage site-fused Avi-tagged dephosphorylated MER (unknown origin) (R528 to M999 residues) using Axltide (CKKSRGDYMTMQJG-acid) peptide as substrate preincubated for 30 mins followed by substrate and ATP addition at Km concentration measured after 120 mins by RapidFire LC-MS analysis.

Data set [6] can be described thus: Intrinsic clearance in human liver microsomes. Type of data set: ADME, Microsome. To be noted: read-out: CLH.
A short description of data set [7]: Distribution coefficient, logD of compound at pH 7.4. The data set is classed as physicochemical. The settings on record: octanol/water.
Data set [8] deals with T2, Receptor-type tyrosine-protein kinase FLT3. The data set is described as follows: Inhibition of His6/TEV fused-GST-tagged Flt3 (unknown origin) (H564 to S993 residues) using Axltide (CKKSRGDYMTMQJ-acid) peptide as substrate preincubated for 30 mins followed by substrate and ATP addition at Km concentration measured after 75 mins by RapidFire LC-MS analysis.
Data set [9] deals with T1, Tyrosine-protein kinase receptor UFO. Description: Inhibition of GST-tagged AXL (unknown origin) ([…] residues) using Axltide (CKKSRGDYMTMQJG-acid) peptide as substrate preincubated for 30 mins followed by substrate and ATP addition at Km concentration measured after 180 mins by RapidFire LC-MS analysis.

As a reminder, the IC50 is the concentration that inhibits the measured activity by half. Broadly, the solubility is the concentration that dissolves in the medium under given conditions. Lower therefore signals a poorly soluble substance. By logD is commonly meant lipophilicity at a set pH, counting ionised and neutral species. The low end stands for lower lipophilicity, the high end for higher lipophilicity. With `COc1cc2c(Nc3cnc(NC(=O)c4cccn4C)nc3)ncnc2cc1OCCCNC1CCCC1`, the results for the half-inhibitory concentration (IC50) in data set [1], in data set [2] and in data set [5] were 126 nM, 10000 nM and 100 nM, respectively. The hepatocyte CLint in data set [3] was less than 1 µL/min/1e6 cells. This compound also yielded a solubility in data set [4] of 1000 µM (≈ 517 µg/mL). Further, the microsomal CLint in data set [6] was less than 3 µL/min/mg. For the same compound, the log distribution coefficient (logD) in data set [7] was determined as 1.8.
`CNc1nc(OC2CCCC2)nc2c1ncn2Cc1c(F)cccc1F`: the IC50 was 794 nM in [1], 100000 nM in data set [2] and 126 nM in data set [5]. For the same compound, the hepatocyte CLint in data set [3] was 190 µL/min/1e6 cells. The concentration in solution in [4] (solubility) was 9 µM (≈ 3.23 µg/mL). The microsomal CLint in [6] came to 240 µL/min/mg. In [7], this compound had a log distribution coefficient (logD) of 4.3.
As for `CNC(=O)c1cnc(Nc2ccc(OC)cc2C)nc1NC1CCCC1`, the IC50 in data set [1] was 31600 nM; in [2] it was more than 79400 nM; in data set [5], 794 nM. The hepatocyte CLint in [3] amounted to 130 µL/min/1e6 cells. The compound also returned a solubility in [4] of 10 µM (≈ 3.55 µg/mL). In [6], the microsomal CLint came to 37 µL/min/mg. The compound further returned a pH-dependent lipophilicity (logD) in data set [7] of 4.2.
With `COc1cc2c(Nc3cnc(OCCCC4CCCC4)nc3)ncnc2cc1OCCCN1CCCCC1`, the results for the IC50 in data set [8], in data set [9] and in [5] were 20 nM, 10 nM and 0.794 nM, respectively. In [3], the hepatocyte CLint stood at 2 µL/min/1e6 cells. In addition, the solubility in [4] was found to be 130 µM (≈ 67.7 µg/mL). For the same compound, the microsomal CLint in [6] was found to be 96 µL/min/mg. In data set [7], this compound returned a log distribution coefficient (logD) of 4.5.
For `O=C(Nc1ccc(Oc2cc(NC(=O)C3CC3)ncn2)cc1)Nc1ccc(CN2CCn3ccnc3C2)c(C(F)(F)F)c1`, the figures for the IC50 in data set [8], in [9] and in data set [5] were 3.16 nM, 398 nM and 6.31 nM, respectively. Also, the hepatocyte CLint in [3] is 9 µL/min/1e6 cells. Moreover, the concentration in solution in data set [4] (solubility) came to 3 µM (≈ 1.78 µg/mL). Moreover, the microsomal CLint in data set [6] came out at 16 µL/min/mg. For the same compound, the logD in [7] worked out at 4.5.
On to `CS(=O)(=O)c1cnc(Nc2ccc(O)cc2)nc1NCc1ccccc1`, for which the IC50 was 1260 nM in data set [8], 1580 nM in data set [9] and 398 nM in data set [5]. In addition, in data set [3], the hepatocyte CLint worked out at 32 µL/min/1e6 cells. The compound further returned a solubility in data set [4] of 27 µM (≈ 10 µg/mL). The microsomal CLint in data set [6] stood at 5 µL/min/mg. Moreover, the log distribution coefficient (logD) in [7] is 2.8.

Values taken from ChEMBL document CHEMBL4732252, “Generating Selective Leads for Mer Kinase Inhibitors-Example of a Comprehensive Lead-Generation Strategy” (J Med Chem, 2021).
